# Tests used:
# [1] = system: Erigeron canadensis; test: Herbicidal activity against compound-resistant Conyza canadensis (horseweed) isolate 2 under greenhouse condition at 9 kg ae/ha measured 21 days post treatment relative to control; assay type: functional
# [2] = system: Erigeron canadensis; test: Herbicidal activity against compound-sensitive Conyza canadensis (horseweed) under greenhouse condition assessed as fresh weight at 3.36 kg ae/ha measured 21 days post treatment relative to untreated control
# [3] = system: Erigeron canadensis; test: Herbicidal activity against compound-resistant Conyza canadensis (horseweed) isolate 1 under greenhouse condition at 0.84 kg ae/ha measured 21 days post treatment relative to control; assay type: functional
# [4] = system: Erigeron canadensis; test: Herbicidal activity against compound-sensitive Conyza canadensis (horseweed) under greenhouse condition at 1.68 kg ae/ha measured 21 days post treatment relative to control; assay type: functional
# [5] = system: Erigeron canadensis; test: Herbicidal activity against compound-resistant Conyza canadensis (horseweed) isolate 2 under greenhouse condition at 0.45 kg ae/ha measured 21 days post treatment relative to control; assay type: functional
# [6] = system: Erigeron canadensis; test: Herbicidal activity against compound-resistant Conyza canadensis (horseweed) isolate 1 under greenhouse condition assessed as fresh weight at 3.36 kg ae/ha measured 21 days post treatment relative to untreated control
# [7] = system: Erigeron canadensis; test: Herbicidal activity against compound-resistant Conyza canadensis (horseweed) isolate 1 under greenhouse condition at 3.36 kg ae/ha measured 21 days post treatment relative to control; assay type: functional
# [8] = system: Erigeron canadensis; test: Herbicidal activity against compound-resistant Conyza canadensis (horseweed) isolate 1 under greenhouse condition at 0.45 kg ae/ha measured 21 days post treatment relative to control; assay type: functional
# [9] = system: Erigeron canadensis; test: Herbicidal activity against compound-resistant Conyza canadensis (horseweed) isolate 2 under greenhouse condition assessed as fresh weight at 9 kg ae/ha measured 21 days post treatment relative to untreated control
# [10] = system: Erigeron canadensis; test: Herbicidal activity against compound-resistant Conyza canadensis (horseweed) isolate 2 under greenhouse condition at 0.84 kg ae/ha measured 14 days post treatment relative to control; assay type: functional
# [11] = system: Erigeron canadensis; test: Herbicidal activity against compound-resistant Conyza canadensis (horseweed) isolate 1 under greenhouse condition at 1.25 kg ae/ha measured 21 days post treatment relative to control; assay type: functional
# [12] = system: Erigeron canadensis; test: Herbicidal activity against compound-sensitive Conyza canadensis (horseweed) under greenhouse condition at 1.25 kg ae/ha measured 7 days post treatment relative to control; assay type: functional
# [13] = system: Erigeron canadensis; test: Herbicidal activity against compound-resistant Conyza canadensis (horseweed) isolate 2 under greenhouse condition at 3.36 kg ae/ha measured 7 days post treatment relative to control; assay type: functional
# [14] = system: Erigeron canadensis; test: Herbicidal activity against compound-sensitive Conyza canadensis (horseweed) under greenhouse condition at 1.68 kg ae/ha measured 7 days post treatment relative to control; assay type: functional
# [15] = system: Erigeron canadensis; test: Herbicidal activity against compound-resistant Conyza canadensis (horseweed) isolate 1 under greenhouse condition assessed as fresh weight at 2.52 kg ae/ha measured 21 days post treatment relative to untreated control
# [16] = system: Erigeron canadensis; test: Herbicidal activity against compound-resistant Conyza canadensis (horseweed) isolate 2 under greenhouse condition at 2.52 kg ae/ha measured 14 days post treatment relative to control; assay type: functional
# [17] = system: Erigeron canadensis; test: Herbicidal activity against compound-sensitive Conyza canadensis (horseweed) under greenhouse condition at 1.25 kg ae/ha measured 14 days post treatment relative to control; assay type: functional
# [18] = system: Erigeron canadensis; test: Herbicidal activity against compound-resistant Conyza canadensis (horseweed) isolate 1 under greenhouse condition at 1.68 kg ae/ha measured 7 days post treatment relative to control; assay type: functional
# [19] = system: Erigeron canadensis; test: Herbicidal activity against compound-resistant Conyza canadensis (horseweed) isolate 2 under greenhouse condition at 3.36 kg ae/ha measured 14 days post treatment relative to control; assay type: functional
# [20] = system: Erigeron canadensis; test: Herbicidal activity against compound-resistant Conyza canadensis (horseweed) isolate 1 under greenhouse condition assessed as fresh weight at 9 kg ae/ha measured 21 days post treatment relative to untreated control
# [21] = system: Erigeron canadensis; test: Herbicidal activity against compound-resistant Conyza canadensis (horseweed) isolate 2 under greenhouse condition assessed as fresh weight at 2.52 kg ae/ha measured 21 days post treatment relative to untreated control
# [22] = system: Erigeron canadensis; test: Herbicidal activity against compound-resistant Conyza canadensis (horseweed) isolate 2 under greenhouse condition assessed as fresh weight at 1.25 kg ae/ha measured 21 days post treatment relative to untreated control
# [23] = system: Erigeron canadensis; test: Herbicidal activity against compound-resistant Conyza canadensis (horseweed) isolate 2 under greenhouse condition at 9 kg ae/ha measured 14 days post treatment relative to control; assay type: functional
# [24] = system: Erigeron canadensis; test: Herbicidal activity against compound-resistant Conyza canadensis (horseweed) isolate 1 under greenhouse condition assessed as fresh weight at 0.45 kg ae/ha measured 21 days post treatment relative to untreated control
# [25] = system: Erigeron canadensis; test: Herbicidal activity against compound-resistant Conyza canadensis (horseweed) isolate 1 under greenhouse condition at 1.25 kg ae/ha measured 14 days post treatment relative to control; assay type: functional
# [26] = system: Erigeron canadensis; test: Herbicidal activity against compound-resistant Conyza canadensis (horseweed) isolate 1 under greenhouse condition at 9 kg ae/ha measured 7 days post treatment relative to control; assay type: functional
# [27] = system: Erigeron canadensis; test: Herbicidal activity against compound-sensitive Conyza canadensis (horseweed) under greenhouse condition assessed as fresh weight at 0.84 kg ae/ha measured 21 days post treatment relative to untreated control
# [28] = system: Erigeron canadensis; test: Herbicidal activity against compound-sensitive Conyza canadensis (horseweed) under greenhouse condition at 1.25 kg ae/ha measured 21 days post treatment relative to control; assay type: functional
# [29] = system: Erigeron canadensis; test: Herbicidal activity against compound-sensitive Conyza canadensis (horseweed) under greenhouse condition at 9 kg ae/ha measured 21 days post treatment relative to control; assay type: functional
# [30] = system: Erigeron canadensis; test: Herbicidal activity against compound-resistant Conyza canadensis (horseweed) isolate 2 under greenhouse condition at 9 kg ae/ha measured 7 days post treatment relative to control; assay type: functional
# [31] = system: Erigeron canadensis; test: Herbicidal activity against compound-sensitive Conyza canadensis (horseweed) under greenhouse condition at 3.36 kg ae/ha measured 7 days post treatment relative to control; assay type: functional
# [32] = system: Erigeron canadensis; test: Herbicidal activity against compound-sensitive Conyza canadensis (horseweed) under greenhouse condition at 9 kg ae/ha measured 7 days post treatment relative to control; assay type: functional
# [33] = system: Erigeron canadensis; test: Herbicidal activity against compound-resistant Conyza canadensis (horseweed) isolate 1 under greenhouse condition assessed as fresh weight at 1.68 kg ae/ha measured 21 days post treatment relative to untreated control
# [34] = system: Erigeron canadensis; test: Herbicidal activity against compound-resistant Conyza canadensis (horseweed) isolate 2 under greenhouse condition at 1.25 kg ae/ha measured 7 days post treatment relative to control; assay type: functional
# [35] = system: Erigeron canadensis; test: Herbicidal activity against compound-resistant Conyza canadensis (horseweed) isolate 2 under greenhouse condition at 0.84 kg ae/ha measured 7 days post treatment relative to control; assay type: functional
# [36] = system: Erigeron canadensis; test: Herbicidal activity against compound-resistant Conyza canadensis (horseweed) isolate 1 under greenhouse condition at 2.52 kg ae/ha measured 21 days post treatment relative to control; assay type: functional
structure (smiles),measurement,setting,value
O=C(O)CNCP(=O)(O)O [GLYPHOSATE],Activity,[1],89%
same,"level, % of control",[2],6%
same,Activity,[3],11%
same,Activity,[4],99%
same,Activity,[5],20%
same,"level, % of control",[6],7%
same,Activity,[7],75%
same,Activity,[8],11%
same,"level, % of control",[9],12%
same,Activity,[10],14%
same,Activity,[11],30%
same,Activity,[12],60%
same,Activity,[13],60%
same,Activity,[14],63%
same,"level, % of control",[15],25%
same,Activity,[16],50%
same,Activity,[17],92%
same,Activity,[18],40%
same,Activity,[19],69%
same,"level, % of control",[20],9%
same,"level, % of control",[21],24%
same,"level, % of control",[22],73%
same,Activity,[23],91%
same,"level, % of control",[24],99%
same,Activity,[25],18%
same,Activity,[26],80%
same,"level, % of control",[27],27%
same,Activity,[28],90%
same,Activity,[29],99%
same,Activity,[30],73%
same,Activity,[31],85%
same,Activity,[32],90%
same,"level, % of control",[33],36%
same,Activity,[34],33%
same,Activity,[35],23%
same,Activity,[36],59%

# — ChEMBL document CHEMBL3045777, “Response of selected horseweed (Conyza canadensis (L.) Cronq.) populations to glyphosate” (2004)
